{"source": "patent US20150018383A1", "about": "“BIOMARKERS OF RENAL DISORDERS” (Institut National de la Sante et de la Recherche Medicale …, priority 2011, published 2015)", "key": {"[1]": {"test_system": "glomerular cells (TUNEL-positive nuclei)", "test": "Glomerular TUNEL apoptosis assay in kidney transplant biopsies", "assay_type": "in vivo, human", "conditions": "renal transplant recipients with lower eGFR, sirolimus-treated versus not treated", "description": "(§1) The study was conducted on 80 renal transplant recipients followed at the Renal Transplant Department of Necker hospital.\nApoptosis was detected in 4-μm sections of paraffin-embedded kidneys by TUNEL assay using the In Situ Cell Death Detection kit (Roche) according to the manufacturer's protocol. The glomerular apoptotic index was calculated as the number of glomeruli with at least one TUNEL-positive nuclei for the total number of glomeruli. All the microscopic fields of a whole kidney section were quantified."}, "[2]": {"test": "Urinary albumin excretion in renal transplant recipients", "assay_type": "in vivo, human", "description": "as §1\nFor human samples, urinary creatinine and albumin were determined using a Hitachi 917 analyzer (Roche Diagnostics), whereas plasma creatinine and sirolimus were evaluated using a Synchron Cx4 autoanalyser (Beckman Coulter) and high-performance liquid chromatography, respectively."}}, "note": "Entries after “also recorded” stand apart in the source; their conditions may differ."}
{"smiles": "CO[C@H]1C[C@@H]2CC[C@@H](C)[C@@](O)(O2)C(=O)C(=O)N2CCCC[C@H]2C(=O)O[C@H]([C@H](C)C[C@@H]2CC[C@@H](O)[C@H](OC)C2)CC(=O)[C@H](C)/C=C(\\C)[C@@H](O)[C@@H](OC)C(=O)[C@H](C)C[C@H](C)/C=C/C=C/C=C/1C", "note": "[sirolimus]", "values": [{"measurement": "glomerular apoptosis (TUNEL)", "setting": "[1]", "value": "marked increased of apoptosis; also recorded: increased glomerular apoptosis"}, {"measurement": "development of albuminuria / proteinuria upon sirolimus treatment", "setting": "[2]; cohort of kidney transplant recipients at different stages of renal failure", "value": "only patients with severe nephron reduction developed albuminuria; also recorded: marked proteinuria"}, {"measurement": "urinary albumin excretion, serial follow-up", "setting": "[2]; patient 1, on sirolimus administration", "value": "severe albuminuria"}, {"measurement": "urinary albumin excretion, serial follow-up", "setting": "[2]; patient 2, after removal of sirolimus", "value": "reversed albuminuria"}]}
